Test results from ChEMBL document CHEMBL1201862, “PubChem BioAssay data set” (2004).
The source made the active and inactive calls.

Columns and labels:
[1] = target: T1, SUMO-activating enzyme (Homo sapiens, UniProt Q9UBT2); test: SUMOylation inhibitor hit validation, confirmation, SUMOylation inhibitor project, biochemical, AlphaScreen (AID 2018); type: functional
[2] = target: T2, Voltage-gated N-type calcium channel alpha-1B subunit/Amyloid beta A4 precursor protein-binding family A member 1 (Homo sapiens, UniProt Q00975+Q02410); type: protein assay
[3] = target: T1, SUMO-activating enzyme; test: inhibitors of in vitro SUMOylation cascade, primary screen, biochemical, HTRF, uHTS (AID 2006); type: protein-complex assay
[4] = target: T2, Voltage-gated N-type calcium channel alpha-1B subunit/Amyloid beta A4 precursor protein-binding family A member 1; type: protein assay; remark: listed apart in the source
[5] = target: DNA dC->dU-editing enzyme APOBEC-3A (Homo sapiens, UniProt P31941); test: APOBEC3A DNA deaminase inhibitors, dose response, biochemical (AID 504722); type: functional
[6] = target: DNA dC->dU-editing enzyme APOBEC-3G (Homo sapiens, UniProt Q9HC16); test: Dose Response confirmation of small molecule APOBEC3G DNA Deaminase Inhibitors via a fluorescence-based single-stranded DNA deaminase assay. [Related pubchem assays (depositor defined):AID493012, AID493028]; type: functional
[7] = A cytotoxicity screen of small molecule inhibitors of the PhoP region in Salmonella typhi identified in the primary screen. [Related pubchem assays: 1850, 1864, 1985 ]; type: functional
[8] = target: T3, Hexokinase (Trypanosoma brucei, UniProt Q38C41); test: Confirmation assay for inhibitors of Trypanosoma brucei hexokinase 1-Analogue-first series. [Related pubchem assays (depositor defined):AID1430, AID1632, AID2516, AID2560, AID2579, AID2600, AID449725, AID492951]; type: functional
T3 sequence (Q38C41 whole entry): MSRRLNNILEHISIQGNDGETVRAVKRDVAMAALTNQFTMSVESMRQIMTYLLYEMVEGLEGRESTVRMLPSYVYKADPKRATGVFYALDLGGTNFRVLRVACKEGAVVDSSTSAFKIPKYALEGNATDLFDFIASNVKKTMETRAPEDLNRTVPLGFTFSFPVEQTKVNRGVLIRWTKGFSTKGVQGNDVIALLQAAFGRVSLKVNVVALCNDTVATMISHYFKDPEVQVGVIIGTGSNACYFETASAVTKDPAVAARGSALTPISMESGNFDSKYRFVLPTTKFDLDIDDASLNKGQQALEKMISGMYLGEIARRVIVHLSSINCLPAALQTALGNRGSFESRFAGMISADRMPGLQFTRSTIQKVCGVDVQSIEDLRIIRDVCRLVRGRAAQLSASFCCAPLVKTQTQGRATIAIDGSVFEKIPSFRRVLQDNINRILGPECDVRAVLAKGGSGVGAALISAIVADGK

[9] = target: T4, Estrogen receptor (Homo sapiens, UniProt P03372);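 also: potency for inhibiting coactivator peptide recruitment to the receptor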
T4 sequence (P03372 whole entry): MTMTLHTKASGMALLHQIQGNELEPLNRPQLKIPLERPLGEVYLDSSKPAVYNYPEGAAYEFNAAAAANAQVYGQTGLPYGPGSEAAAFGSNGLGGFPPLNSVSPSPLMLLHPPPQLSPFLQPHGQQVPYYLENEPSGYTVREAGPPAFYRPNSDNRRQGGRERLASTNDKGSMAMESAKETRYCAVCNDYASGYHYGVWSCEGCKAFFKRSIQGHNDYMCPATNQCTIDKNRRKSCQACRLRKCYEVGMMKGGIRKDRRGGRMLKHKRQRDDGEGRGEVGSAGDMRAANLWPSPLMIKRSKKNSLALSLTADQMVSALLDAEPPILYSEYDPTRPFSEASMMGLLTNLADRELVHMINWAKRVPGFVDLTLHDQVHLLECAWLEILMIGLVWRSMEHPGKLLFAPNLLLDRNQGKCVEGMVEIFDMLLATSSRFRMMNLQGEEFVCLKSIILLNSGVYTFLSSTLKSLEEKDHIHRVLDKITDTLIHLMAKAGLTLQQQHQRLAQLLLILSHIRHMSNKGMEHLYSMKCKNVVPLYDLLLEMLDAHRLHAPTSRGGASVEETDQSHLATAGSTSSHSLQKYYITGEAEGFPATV

[10] = target: Glyceraldehyde-3-phosphate dehydrogenase (Homo sapiens, UniProt P04406)
[11] = target: Glucose-6-phosphate 1-dehydrogenase (Homo sapiens, UniProt P11413); test: human G6PD enzyme inhibitors, dose response, selectivity assay for P. falciparum G6PD inhibitor project, biochemical, fluorescence (AID 504792); type: functional
[12] = target: Beta-galactosidase (Escherichia coli, UniProt Q8VNN2); test: beta-galactosidase enzyme inhibitors and activators, dose response, artefact control for CCR6 antagonist project, biochemical, E. coli enzyme, set 3 (AID 504712); type: functional
[13] = target: Heat shock protein HSP 90-alpha (Homo sapiens, UniProt P07900); type: functional, organism-based
[14] = target: FAD-linked sulfhydryl oxidase ALR (Homo sapiens, UniProt P55789); test: inhibitors of human ALR sulfhydryl oxidase, dose response, biochemical, H2O2 detection, luminescence, cherry-pick (AID 493248)
[15] = target: Genome polyprotein (dengue virus type 2, UniProt P29990); test: Dengue-2 NS5 methyltransferase inhibitors, primary screen, biochemical, confirmation dose response (AID 588689); type: functional
[16] = growth suppression of PTEN-null colon cells, dose response, cell-based, HCT116 PTEN knockout (AID 1047); type: functional;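 also: HCT116 colon tumor cells with PTEN knocked out; cells exposed to compound for 60 hours before readout; potency for loss of cell viability measured by luminescence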
[17] = growth suppression of beta-catenin-knockout colon cells, dose response, cell-based, HCT116, human colon tumor (AID 1045); type: functional;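 also: HCT116 colon tumor cells with beta catenin knocked out; cells exposed to compound for 60 hours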
[18] = target: T5, Heat shock factor protein 1 (Mus musculus, UniProt P38532); test: inhibition of MG132-induced HSE-luciferase signal, confirmation, cell-based, NIH3T3, luminescence, dose retest (AID 2382); type: functional;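 also: NIH3T3 fibroblasts with HSF1-driven luciferase reporter stressed by proteasome inhibitor MG132; luminescence from HSF1-driven luciferase expression after 8 hours of MG132 stress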
T5 sequence (P38532 whole entry): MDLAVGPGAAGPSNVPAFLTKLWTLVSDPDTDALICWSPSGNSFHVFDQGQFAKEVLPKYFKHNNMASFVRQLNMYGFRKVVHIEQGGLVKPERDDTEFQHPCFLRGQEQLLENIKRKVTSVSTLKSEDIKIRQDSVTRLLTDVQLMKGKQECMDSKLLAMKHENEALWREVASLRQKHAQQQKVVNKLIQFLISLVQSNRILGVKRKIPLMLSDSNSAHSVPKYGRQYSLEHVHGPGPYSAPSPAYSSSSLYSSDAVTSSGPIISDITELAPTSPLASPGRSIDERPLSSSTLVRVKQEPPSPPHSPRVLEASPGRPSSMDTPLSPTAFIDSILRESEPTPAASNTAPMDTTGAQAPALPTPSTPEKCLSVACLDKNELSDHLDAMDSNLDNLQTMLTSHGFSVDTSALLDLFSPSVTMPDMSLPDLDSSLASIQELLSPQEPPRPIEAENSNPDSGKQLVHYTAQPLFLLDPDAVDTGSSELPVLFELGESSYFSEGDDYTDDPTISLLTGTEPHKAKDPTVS

[19] = target: T6, Acyl-homoserine lactone acylase PvdQ (Pseudomonas aeruginosa (strain LESB58), UniProt Q9I194); test: P. aeruginosa PvdQ acylase inhibitors, dose response, biochemical, fluorescence, plate reader and imaging, cherry-picks (AID 493231)
T6 sequence (Q9I194 whole entry): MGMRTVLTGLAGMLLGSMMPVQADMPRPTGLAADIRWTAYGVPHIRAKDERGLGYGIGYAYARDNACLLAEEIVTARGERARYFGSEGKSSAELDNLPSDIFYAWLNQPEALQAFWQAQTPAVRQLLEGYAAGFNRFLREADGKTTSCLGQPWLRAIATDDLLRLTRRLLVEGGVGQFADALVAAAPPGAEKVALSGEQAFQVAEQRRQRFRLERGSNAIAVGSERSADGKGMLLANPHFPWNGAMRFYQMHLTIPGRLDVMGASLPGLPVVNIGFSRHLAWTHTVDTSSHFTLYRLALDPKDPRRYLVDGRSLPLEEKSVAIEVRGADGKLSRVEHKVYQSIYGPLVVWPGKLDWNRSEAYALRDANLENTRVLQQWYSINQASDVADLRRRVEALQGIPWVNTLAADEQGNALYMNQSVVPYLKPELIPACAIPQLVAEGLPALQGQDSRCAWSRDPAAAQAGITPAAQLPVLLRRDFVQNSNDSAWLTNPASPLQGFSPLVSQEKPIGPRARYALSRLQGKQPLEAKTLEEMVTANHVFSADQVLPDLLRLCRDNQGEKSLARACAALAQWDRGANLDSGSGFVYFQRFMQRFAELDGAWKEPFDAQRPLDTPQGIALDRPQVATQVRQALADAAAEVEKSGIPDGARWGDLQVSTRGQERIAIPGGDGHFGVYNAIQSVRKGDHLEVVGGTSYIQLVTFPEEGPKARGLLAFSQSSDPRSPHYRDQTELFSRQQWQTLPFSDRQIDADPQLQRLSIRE

[20] = target: Nonstructural protein 1 (Influenza A virus, UniProt Q194T2); type: functional, Influenza A virus (A/California/07/2009(H1N1))
[21] = target: Cytochrome P450 2C9 (Homo sapiens, UniProt P11712)
[22] = target: Induced myeloid leukemia cell differentiation protein Mcl-1 (Homo sapiens, UniProt Q07820); type: functional
[23] = inhibitors of intracellular T. cruzi replication, confirmation, NIH3T3 host cells, beta-gal luminescence (AID 2044); type: functional, cell-based;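 also: intracellular parasites grown in NIH/3T3 mouse fibroblasts as host cells; luminescent beta-galactosidase reporter signal from transgenic T. cruzi replicating inside host cells; inhibitors lower the luminescence signal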
[24] = cytotoxicity toward NIH3T3 fibroblasts, dose response, counter-screen, cell-based, ATP luminescence, mouse fibroblasts (AID 2010); type: functional;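 also: cells exposed to compound for about 90 hours before reading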
[25] = target: Cytochrome P450 3A4 (Homo sapiens, UniProt P08684); conditions: Potency;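 also: confirmatory qHTS run detecting inhibitors and substrates of CYP3A4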
[26] = cytotoxicity in HEK-293T cells, dose response, cytotoxicity control for BCR NF-kB inhibitor project, luminescence, B-cell screen hits (AID 489021); type: functional, cell-based;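 also: HEK-293T cells carrying an NF-kB luciferase reporter; cells exposed to compound for about 14 hours before viability readout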
[27] = test system: HEK293; test: inhibitors of LMP1-driven NF-kB reporter, dose response, cell-based, HEK293, luciferase, cherry-pick (AID 588343); type: functional; conditions: Homo sapiens
[28] = target: T7, Bcl-2-like protein 10 (Homo sapiens, UniProt Q9HD36); test: displacers of TR3 peptide from Bcl-B, primary screen, selectivity assay for Bfl-1 inhibitor project, biochemical, fluorescence polarization, FITC-TR3 peptide (AID 748);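 also: fluorescence polarization from a fluorescein-labelled TR3 peptide binding purified Bcl-B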
T7 sequence (Q9HD36 whole entry): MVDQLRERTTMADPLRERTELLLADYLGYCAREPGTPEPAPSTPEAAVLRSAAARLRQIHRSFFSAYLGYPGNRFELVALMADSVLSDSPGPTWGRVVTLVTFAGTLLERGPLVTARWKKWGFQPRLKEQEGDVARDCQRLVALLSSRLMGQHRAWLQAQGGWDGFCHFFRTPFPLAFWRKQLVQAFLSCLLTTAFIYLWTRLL

Sequence of DNA dC->dU-editing enzyme APOBEC-3A (P31941 whole entry): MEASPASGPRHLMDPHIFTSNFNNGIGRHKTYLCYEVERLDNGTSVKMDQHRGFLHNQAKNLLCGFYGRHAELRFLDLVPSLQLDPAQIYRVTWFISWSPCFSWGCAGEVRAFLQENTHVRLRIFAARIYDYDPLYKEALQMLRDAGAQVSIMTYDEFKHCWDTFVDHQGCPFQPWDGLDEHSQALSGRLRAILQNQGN
T1 sequence (Q9UBE0 whole entry): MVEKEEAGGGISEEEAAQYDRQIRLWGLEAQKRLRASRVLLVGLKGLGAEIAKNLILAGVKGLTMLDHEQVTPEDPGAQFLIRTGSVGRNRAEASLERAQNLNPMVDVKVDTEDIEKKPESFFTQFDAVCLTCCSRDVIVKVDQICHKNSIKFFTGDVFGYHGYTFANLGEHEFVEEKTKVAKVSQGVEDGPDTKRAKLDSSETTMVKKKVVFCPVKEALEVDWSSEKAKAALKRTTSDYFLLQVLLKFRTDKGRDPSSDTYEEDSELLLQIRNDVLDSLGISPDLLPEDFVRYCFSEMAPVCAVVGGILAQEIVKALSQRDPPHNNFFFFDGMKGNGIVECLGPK
T1 sequence (Q9UBT2 whole entry): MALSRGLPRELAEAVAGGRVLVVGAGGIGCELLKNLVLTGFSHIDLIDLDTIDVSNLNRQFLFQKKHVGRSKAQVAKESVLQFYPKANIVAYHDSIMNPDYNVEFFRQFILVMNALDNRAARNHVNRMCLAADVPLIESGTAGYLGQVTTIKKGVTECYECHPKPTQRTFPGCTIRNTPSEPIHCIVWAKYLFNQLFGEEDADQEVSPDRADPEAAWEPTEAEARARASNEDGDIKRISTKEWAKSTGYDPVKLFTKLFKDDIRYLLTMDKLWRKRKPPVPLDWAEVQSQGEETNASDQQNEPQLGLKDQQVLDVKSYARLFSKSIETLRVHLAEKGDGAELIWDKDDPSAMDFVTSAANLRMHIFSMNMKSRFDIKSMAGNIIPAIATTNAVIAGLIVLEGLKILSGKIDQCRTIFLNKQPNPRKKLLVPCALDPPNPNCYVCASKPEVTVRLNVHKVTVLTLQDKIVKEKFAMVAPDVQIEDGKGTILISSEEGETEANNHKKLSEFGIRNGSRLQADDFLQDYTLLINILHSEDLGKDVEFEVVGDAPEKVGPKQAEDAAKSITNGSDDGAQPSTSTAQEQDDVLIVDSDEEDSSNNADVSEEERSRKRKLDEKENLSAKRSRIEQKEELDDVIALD
T2 sequence (Q00975 whole entry): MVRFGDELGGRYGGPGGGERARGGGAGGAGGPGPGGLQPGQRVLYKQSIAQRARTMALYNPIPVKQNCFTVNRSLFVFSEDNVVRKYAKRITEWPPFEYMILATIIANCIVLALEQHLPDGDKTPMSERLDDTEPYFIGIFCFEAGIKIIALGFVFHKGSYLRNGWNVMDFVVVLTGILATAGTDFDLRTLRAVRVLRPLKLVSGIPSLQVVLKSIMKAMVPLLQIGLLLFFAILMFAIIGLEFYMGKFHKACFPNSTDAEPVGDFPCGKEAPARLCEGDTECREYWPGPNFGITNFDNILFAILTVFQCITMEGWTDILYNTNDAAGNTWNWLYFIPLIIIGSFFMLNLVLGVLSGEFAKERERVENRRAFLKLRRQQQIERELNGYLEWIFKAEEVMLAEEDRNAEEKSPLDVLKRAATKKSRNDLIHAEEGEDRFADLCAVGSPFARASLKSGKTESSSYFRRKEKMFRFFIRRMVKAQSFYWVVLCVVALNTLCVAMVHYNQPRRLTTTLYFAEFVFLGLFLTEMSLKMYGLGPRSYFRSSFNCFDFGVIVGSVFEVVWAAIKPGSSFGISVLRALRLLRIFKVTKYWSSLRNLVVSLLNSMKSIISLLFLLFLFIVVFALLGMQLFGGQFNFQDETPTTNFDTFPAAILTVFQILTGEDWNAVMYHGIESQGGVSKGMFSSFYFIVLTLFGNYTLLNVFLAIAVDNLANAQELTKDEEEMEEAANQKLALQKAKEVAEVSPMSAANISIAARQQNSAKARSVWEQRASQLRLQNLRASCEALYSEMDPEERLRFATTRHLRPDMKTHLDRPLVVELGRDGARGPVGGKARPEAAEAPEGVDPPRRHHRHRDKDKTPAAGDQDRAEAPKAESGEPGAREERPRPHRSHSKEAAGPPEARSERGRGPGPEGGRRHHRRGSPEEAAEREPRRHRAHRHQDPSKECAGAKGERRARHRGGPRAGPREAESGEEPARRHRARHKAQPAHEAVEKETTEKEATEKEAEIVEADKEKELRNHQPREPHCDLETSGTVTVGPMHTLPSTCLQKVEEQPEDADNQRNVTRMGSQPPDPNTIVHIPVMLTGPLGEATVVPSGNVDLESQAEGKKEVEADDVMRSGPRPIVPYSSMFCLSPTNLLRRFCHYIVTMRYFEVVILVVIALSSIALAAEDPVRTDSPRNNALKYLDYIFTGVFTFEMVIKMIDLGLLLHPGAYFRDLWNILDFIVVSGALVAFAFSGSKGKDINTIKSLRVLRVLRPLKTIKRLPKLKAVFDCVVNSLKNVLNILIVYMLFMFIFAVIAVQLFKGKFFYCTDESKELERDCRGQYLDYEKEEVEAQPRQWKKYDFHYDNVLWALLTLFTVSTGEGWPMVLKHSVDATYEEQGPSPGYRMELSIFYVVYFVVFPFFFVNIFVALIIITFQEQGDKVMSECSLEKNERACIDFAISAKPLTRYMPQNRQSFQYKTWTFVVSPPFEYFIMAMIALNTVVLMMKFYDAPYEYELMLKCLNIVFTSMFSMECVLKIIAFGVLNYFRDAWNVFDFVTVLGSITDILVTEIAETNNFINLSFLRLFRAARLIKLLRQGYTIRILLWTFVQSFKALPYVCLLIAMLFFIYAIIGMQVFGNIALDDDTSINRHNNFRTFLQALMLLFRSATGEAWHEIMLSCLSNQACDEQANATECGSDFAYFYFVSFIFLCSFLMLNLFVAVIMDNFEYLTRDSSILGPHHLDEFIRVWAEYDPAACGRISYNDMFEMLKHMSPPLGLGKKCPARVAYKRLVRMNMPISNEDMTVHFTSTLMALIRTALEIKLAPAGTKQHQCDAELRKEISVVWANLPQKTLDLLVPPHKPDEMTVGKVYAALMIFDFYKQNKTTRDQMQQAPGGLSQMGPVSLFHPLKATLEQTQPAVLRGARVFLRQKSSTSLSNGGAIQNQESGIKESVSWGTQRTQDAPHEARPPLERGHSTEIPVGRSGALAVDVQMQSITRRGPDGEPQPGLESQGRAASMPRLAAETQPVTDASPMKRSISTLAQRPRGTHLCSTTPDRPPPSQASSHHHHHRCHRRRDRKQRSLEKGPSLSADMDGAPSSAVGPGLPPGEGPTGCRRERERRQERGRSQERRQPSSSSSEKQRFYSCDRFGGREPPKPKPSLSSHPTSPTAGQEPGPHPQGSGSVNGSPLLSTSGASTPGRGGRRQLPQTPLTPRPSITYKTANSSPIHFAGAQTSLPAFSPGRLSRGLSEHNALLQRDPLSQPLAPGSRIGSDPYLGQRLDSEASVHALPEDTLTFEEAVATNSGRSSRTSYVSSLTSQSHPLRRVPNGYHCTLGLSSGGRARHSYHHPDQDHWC
T2 sequence (Q02410 whole entry): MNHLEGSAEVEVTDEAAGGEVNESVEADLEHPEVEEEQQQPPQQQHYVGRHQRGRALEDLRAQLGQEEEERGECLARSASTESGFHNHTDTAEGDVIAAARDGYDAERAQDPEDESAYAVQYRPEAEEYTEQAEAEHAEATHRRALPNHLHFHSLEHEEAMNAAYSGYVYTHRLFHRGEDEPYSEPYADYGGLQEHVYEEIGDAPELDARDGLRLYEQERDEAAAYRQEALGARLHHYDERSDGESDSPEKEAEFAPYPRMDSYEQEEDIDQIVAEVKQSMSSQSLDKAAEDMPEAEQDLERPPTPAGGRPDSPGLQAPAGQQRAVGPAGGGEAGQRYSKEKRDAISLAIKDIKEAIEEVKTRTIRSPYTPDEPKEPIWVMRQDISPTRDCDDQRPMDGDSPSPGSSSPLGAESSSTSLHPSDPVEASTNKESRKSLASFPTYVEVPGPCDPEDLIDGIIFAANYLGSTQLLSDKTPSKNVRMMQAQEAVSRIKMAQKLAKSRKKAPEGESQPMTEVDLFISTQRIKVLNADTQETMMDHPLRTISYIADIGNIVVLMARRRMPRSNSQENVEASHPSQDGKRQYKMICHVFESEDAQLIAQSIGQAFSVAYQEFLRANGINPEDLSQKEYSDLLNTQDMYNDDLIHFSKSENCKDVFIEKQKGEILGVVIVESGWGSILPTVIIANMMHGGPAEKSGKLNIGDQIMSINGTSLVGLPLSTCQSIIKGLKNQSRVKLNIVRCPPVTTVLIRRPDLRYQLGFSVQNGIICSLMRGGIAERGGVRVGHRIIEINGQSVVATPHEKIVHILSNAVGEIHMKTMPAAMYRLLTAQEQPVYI
Sequence of Cytochrome P450 3A4 (P08684 whole entry): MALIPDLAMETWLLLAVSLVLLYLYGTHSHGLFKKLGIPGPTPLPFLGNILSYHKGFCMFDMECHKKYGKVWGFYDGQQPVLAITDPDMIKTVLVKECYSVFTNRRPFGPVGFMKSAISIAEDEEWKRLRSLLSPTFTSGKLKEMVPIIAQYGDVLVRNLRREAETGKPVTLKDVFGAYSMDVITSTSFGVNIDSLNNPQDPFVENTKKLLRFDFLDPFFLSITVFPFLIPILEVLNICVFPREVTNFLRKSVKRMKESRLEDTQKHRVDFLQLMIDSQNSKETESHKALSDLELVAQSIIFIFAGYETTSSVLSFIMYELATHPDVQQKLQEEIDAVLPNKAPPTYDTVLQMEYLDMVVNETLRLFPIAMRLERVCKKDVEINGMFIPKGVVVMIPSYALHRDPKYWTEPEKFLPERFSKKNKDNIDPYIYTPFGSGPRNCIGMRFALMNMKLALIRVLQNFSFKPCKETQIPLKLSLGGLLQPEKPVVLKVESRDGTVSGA
Sequence of FAD-linked sulfhydryl oxidase ALR (P55789 whole entry): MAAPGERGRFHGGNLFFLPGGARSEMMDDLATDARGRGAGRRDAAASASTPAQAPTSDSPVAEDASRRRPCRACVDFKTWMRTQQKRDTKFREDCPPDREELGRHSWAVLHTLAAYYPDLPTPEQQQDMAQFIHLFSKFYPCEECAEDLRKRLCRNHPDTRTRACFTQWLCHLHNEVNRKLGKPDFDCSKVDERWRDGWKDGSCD

CCOc1ccc(NC(=O)c2ccc(NC(=O)c3ccc(CN4CCOCC4)cc3)cc2)cc1
IC50 [1]: 22.4 µM (active) | IC50 [2]: 10.1 µM (active) | IC50 [3]: 25.1 µM (active) | IC50 [4]: > 50 µM (inactive)

Cc1ccsc1-c1nnc(S)n1CC(C)C
IC50 [5]: > 100 µM (inactive) | IC50 [6]: 5.9 µM (active)

O=[N+]([O-])c1ccc2oc(C3CCCCC3)nc2c1
EC50 [7]: > 50 µM (active)

COc1ccc(S(=O)(=O)Nc2cc(Cl)ccc2C(=O)O)cc1
IC50 [8]: > 25 µM (inactive)

CCn1c2ccccc2c2cc(NC(=O)CSc3nnc(-c4ccc(OC)cc4)n3N)ccc21
IC50 [9]: 12.2 µM (active)

COc1cccc(N2CCN(C3=C(Cl)C(=O)N(c4cccc(OC)c4)C3=O)CC2)c1
IC50 [10]: > 50 µM (inconclusive)

CC(C)(C)c1ccc(C(=O)Nc2cc(Cl)c(F)cc2C(=O)O)cc1
IC50 [8]: 2.79 µM (active)

N=c1c(S(=O)(=O)c2ccc(Br)cc2)cc2c(=O)n3ccccc3nc2n1Cc1ccco1
IC50 [1]: 3.92 µM (active) | IC50 [3]: 4.16 µM (active)

Cc1ccc(/C=N/n2c(S)nnc2-c2ccco2)s1
IC50 [5]: > 100 µM (inactive) | IC50 [6]: 1.55 µM (active)

O=c1ccsn1-c1ccccc1
IC50 [8]: 13.5 µM (active)

CC1CC(C(F)(F)C(F)(F)F)n2nc(C(=O)O)cc2N1 (centres undefined)
IC50 [9]: 19.9 µM (active)

O=C1C=CC(=O)N1c1ccc(N2CCCCC2)cc1
IC50 [2]: 9.34 µM (active) | IC50 [4]: 3.07 µM (active) | IC50 [5]: > 100 µM (inactive) | IC50 [11]: > 80 µM (inactive) | IC50 [12]: > 66.6 µM (inactive) | IC50 [6]: 7.13 µM (active) | AC50 [13]: 0.554 µM (active)

Cc1cccc(N/N=C/c2ccc(O)c(O)c2O)c1
EC50 [7]: > 50 µM (active) | AC50 [14]: 1.36 µM (active) | IC50 [15]: 32.6 µM (active)

S=C(Nc1ccccc1)c1ccccn1
EC50 [16]: 32.5 µM (active) | EC50 [17]: 32.8 µM (active) | IC50 [12]: > 66.6 µM (inactive)

CSC1=N/C(=C\C=C\c2cccs2)C(=O)S1
EC50 [18]: 0.853 µM (active) | AC50 [19]: 3.5 µM (active) | IC50 [20]: 69.4 µM (active)

CCOC(=O)c1ccc(NC(=O)CSc2nnc(CNc3ccc(OC)cc3)n2C)cc1
IC50 [9]: > 50 µM (not active)

c1ccc2cc(-c3csnn3)ccc2c1
AC50 [19]: 75.6 µM (active) | AC50 [21]: 14.1 µM (inconclusive)

COc1cc(/C=N\Nc2nc(-c3ccc(C)cc3)c(NC(C)=O)s2)ccc1O
IC50 [22]: 3.02 µM (not active)

Cc1cccc(-c2nc(Nc3ccc(N4CCOCC4)cc3)c3ccccc3n2)c1
EC50 [23]: 1.23 µM (active) | EC50 [24]: > 60 µM (not active) | IC50 [22]: > 54 µM (active)

O=S1OCC2C(CO1)C1(Cl)C(Cl)=C(Cl)C2(Cl)C1(Cl)Cl (centres undefined) [ENDOSULFAN]
AC50 [25]: 2.51 µM (inconclusive)

CCOC(=O)/C=C(\C)Sc1cc(=O)oc2ccccc12
AC50 [19]: 8.71 µM (active) | IC50 [26]: > 80 µM (inactive) | AC50 [27]: 12 µM (active)

c1ccc(C2[C@H]3CN(CC4CCCCC4)[C@H](c4ccccc4)C34CC2(c2ccccc2)C4)cc1 (some centres undefined)
AC50 [25]: 5.01 µM (inconclusive)

COc1ccc(C2C=C(c3ccc(Br)cc3)Nc3nc(NS(C)(=O)=O)nn32)cc1 (centres undefined)
IC50 [28]: > 1.56 µM (inactive)

Oc1ccc(-c2nc3ncccn3c2Nc2ccc3c(c2)OCCO3)cc1
EC50 [7]: > 50 µM (active)

CCCn1c(C)nc2c(NC3CCCCC3)nc(C)nc21
AC50 [25]: 12.6 µM (inconclusive)

COC(=O)[C@@H]1C[C@@H]2CC[C@@H](O)C[C@@H]2N1Cc1ccc(N2CCN(C)CC2)cc1
AC50 [25]: 10 µM (inconclusive)
